Assay results published in patent US12419878B2, “Sustained release local anesthetic hydrogel composition” (THE GOVERNING COUNCIL OF THE UNIVERSITY OF TORONTO, priority 2019, dated 2025).
Where a name gives a salt, the structure may show the parent alone.

Assay: Plasma pharmacokinetics of ropivacaine in sciatic nerve blockade model
Format: in vivo, Sprague-Dawley rats
Text: Male Sprague-Dawley rats, approximately 400-500 g in weight, were anesthetized with 3-5% isoflurane and maintained as required. The left hind leg was shaved, cleaned twice with iodine and 70% ethanol, and a sterile drape placed over the animal to create a sterile field. An incision was made in the skin and the sciatic nerve exposed using a blunt dissection. The treatment was applied, the muscle and incision closed with sutures, and animals allowed to recover under a heat lamp. Controls were injected with vehicle only (i.e. HAMC) or ropivacaine in solution.
Blood samples were taken from the tail veins and quantified using mass-spectrometry. All extractions and mass-spectrometry was carried out by the Analytical Facility for Bioactive Molecules (The Hospital for Sick Children, Toronto, Canada).
To gain insight into the pharmacokinetics of ropivacaine released from HAMC, the sciatic nerve block procedure was performed as described. Animals were treated with ropivacaine-loaded 1.4:3 HAMC at doses of 30, 60, 90 or 120 mg/kg of particulate ropivacaine (<100 μm). Control animals received HAMC alone or ropivacaine in solution at 24 mg/kg. Each animal received approximately 400 μL of treatment. For the HAMC groups, blood was sampled by tail vein puncture at 2 h, 4 h, 6 h, 12 h, 20 h, 30 h, 48 h and 72 h. […]
All statistical analyses were performed using GraphPad Prism (GraphPad Software 6, San Diego, CA, USA). Differences among 4 groups were assessed by one-way ANOVA followed by either Dunnett's or Tukey's multiple comparisons test to identify statistical significance. […] The area under the curve (AUC) was calculated for each HAMC-ropivacaine pharmacokinetic profile, and the subsequent AUC vs HAMC-ropivacaine relationship was fit to a linear regression.
A pharmacokinetics study was performed to evaluate the systemic plasma distribution of ropivacaine when delivered either from HAMC or as bolus liquid solution. […] Blood was sampled by tail vein puncture over time, and the amount of ropivacaine was quantified by LC-MS/MS.

[1] = Sprague-Dawley, rat, plasma, 24 mg/kg at left sciatic nerve, male rats

CCCN1CCCC[C@H]1C(=O)Nc1c(C)cccc1C [ropivacaine solution, ropivacaine·HCl]
plasma levels (24 mg/kg, by 24 h): negligible plasma levels | Cmax [1]: 1000 ng/mL | Tmax [1]: 1 h
